# Results reported in the supplement of paper PMC12137928.
# Where a name gives a salt, the structure may show the parent alone.
# Tested on: HCT116
# Details: 72 h
# Outline: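 Each well of the 1536-well plates received 250 HCT116 cells, which attached over 5 h. Luminescence was measured with CellTiter-Glo, scaled with vehicle as 0% and positive control as -100%, and pattern-corrected. A four-parameter Hill fit yielded IC50 and maximal efficacy.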
SMILES,IC50 cell viability (ICRF193 0 nM) [µM],IC50 cell viability (ICRF193 200 nM) [µM]
CN1C(=O)CCS(=O)(=O)C1c1ccc(Cl)cc1 (stereo not drawn) [Chlormezanone],> 45.8,> 45.8
CCN(CC)CCCC(C)Nc1ccnc2cc(Cl)ccc12 (stereo not drawn) [Chloroquine],> 45.8,> 45.8
NS(=O)(=O)c1cc2c(cc1Cl)N=CNS2(=O)=O [Chlorothiazide],> 45.8,> 45.8
CCCNC(=O)NS(=O)(=O)c1ccc(Cl)cc1 [Chlorpropamide],> 45.8,> 45.8
NS(=O)(=O)c1cc(C2(O)NC(=O)c3ccccc32)ccc1Cl (stereo not drawn) [Chlorthalidone],> 45.8,> 45.8
CC(C)(Oc1ccc(Cl)cc1)C(=O)OCCCOC(=O)C(C)(C)Oc1ccc(Cl)cc1 [Cholesolvin],> 45.8,> 45.8
c1ccc(C2(c3ccccc3)CC2C2=NCCN2)cc1 (stereo not drawn) [Cibenzoline succinate],> 45.8,> 45.8
CC(C)C(=O)OCC(=O)[C@@]12O[C@H](C3CCCCC3)O[C@@H]1C[C@H]1[C@@H]3CCC4=CC(=O)C=C[C@]4(C)[C@H]3[C@@H](O)C[C@@]12C [Ciclesonide],> 45.8,> 45.8
CCOC(=O)[C@H](CCc1ccccc1)N[C@H]1CCCN2CCC[C@@H](C(=O)O)N2C1=O [Cilazapril],> 45.8,> 45.8
COc1ccc([C@]2(C#N)CC[C@@H](C(=O)O)CC2)cc1OC1CCCC1 [Cilomilast],> 45.8,> 45.8
COc1cc(/C=C/C(=O)N2CCN(CC(=O)N3CCCC3)CC2)cc(OC)c1OC [Cinepazide Maleate],> 45.8,> 45.8
CC(C(O)c1ccccc1)N(C)C/C=C/c1ccccc1 (stereo not drawn) [Cinnamedrine],> 45.8,> 45.8
CCOCCOC(=O)/C=C/c1ccc(OC)cc1 [Cinoxate],> 45.8,> 45.8
CC(C)(Oc1ccc(C2CC2(Cl)Cl)cc1)C(=O)O (stereo not drawn) [Ciprofibrate],> 45.8,> 45.8
COc1cc(N)c(Cl)cc1C(=O)NC1CCN(CCCOc2ccc(F)cc2)CC1OC (stereo not drawn) [Cisapride],> 45.8,> 45.8
COc1cc(N)c(Cl)cc1C(=O)NC1CCN(Cc2ccccc2)CC1 [Clebopride maleate],> 45.8,> 45.8
CC(C)(C)NCC(O)c1cc(Cl)c(N)c(Cl)c1 (stereo not drawn) [Clenbuterol],> 45.8,> 45.8
CCCC(=O)OCOC(=O)C1=C(C)NC(C)=C(C(=O)OC)C1c1cccc(Cl)c1Cl (stereo not drawn) [Clevidipine],> 45.8,> 45.8
C[N+]12CCC(CC1)C(OC(=O)C(O)(c1ccccc1)c1ccccc1)C2 (stereo not drawn) [Clidinium bromide],> 45.8,> 45.8
CCC[C@@H]1C[C@@H](C(=O)N[C@@H]([C@H]2O[C@H](SC)[C@H](OP(=O)(O)O)[C@@H](O)[C@H]2O)[C@H](C)Cl)N(C)C1 [Clindamycin Phosphate],> 45.8,> 45.8
CCC[C@@H]1C[C@@H](C(=O)N[C@@H]([C@H]2O[C@H](SC)[C@H](O)[C@@H](O)[C@H]2O)[C@H](C)Cl)N(C)C1 [Clindamycin hydrochloride],> 45.8,> 45.8
CCCCCCCCCCCCCCCC(=O)O[C@@H]1[C@@H](O)[C@@H](O)[C@@H]([C@H](NC(=O)[C@@H]2C[C@@H](CCC)CN2C)[C@H](C)Cl)O[C@@H]1SC [Clindamycin palmitate HCl],> 45.8,> 45.8

# The next lines start with the values.
IC50 cell viability (ICRF193 0 nM) [µM],IC50 cell viability (ICRF193 200 nM) [µM],SMILES
> 45.8,> 45.8,CC(=O)O[C@]1(C(C)=O)CC[C@H]2[C@@H]3C=C(Cl)C4=CC(=O)CC[C@]4(C)[C@H]3CC[C@@]21C [Chlormadinone acetate]
> 45.8,> 45.8,CCN(CC)CCOC(=O)c1ccc(N)cc1Cl [Chloroprocaine HCl]
> 45.8,> 45.8,NC(=O)OCC(O)COc1ccc(Cl)cc1 (stereo not drawn) [Chlorphensin carbamate]
> 45.8,> 45.8,CN(C)[C@@H]1C(O)=C(C(N)=O)C(=O)[C@@]2(O)C(O)=C3C(=O)c4c(O)ccc(Cl)c4[C@@](C)(O)[C@H]3C[C@@H]12 [Chlortetracycline HCl]
> 45.8,> 45.8,CC(C)CCC[C@@H](C)[C@H]1CC[C@H]2[C@@H]3CC=C4C[C@@H](O)CC[C@]4(C)[C@H]3CC[C@]12C [Cholesterol]
> 45.8,> 45.8,C[C@H](CCC(=O)O)[C@H]1CC[C@H]2[C@@H]3[C@H](O)C[C@@H]4C[C@H](O)CC[C@]4(C)[C@H]3C[C@H](O)[C@]12C [Cholic Acid]
> 45.8,> 45.8,C[N+](C)(C)CCO.[Cl-] [Choline Chloride]
> 45.8,> 45.8,CCOC(=O)COc1ccc2c(C)c(CCN(CC)CC)c(=O)oc2c1 [Chromonar hydrochloride]
> 45.8,> 45.8,Cc1cc(O)c2c(O)c3c(O)cccc3cc2c1 [Chrysarobin]
> 45.8,> 45.8,Nc1ccn(C[C@@H](CO)OCP(=O)(O)O)c(=O)n1 [Cidofovir]
> 45.8,> 45.8,CC1(C)C[C@@H]1C(=O)N/C(=C\CCCCSC[C@H](N)C(=O)O)C(=O)O [Cilastatin]
> 45.8,> 45.8,CC(C)[C@H]1C(=O)N[C@@H](CCCNC(=N)N)C(=O)NCC(=O)N[C@@H](CC(=O)O)C(=O)N[C@H](Cc2ccccc2)C(=O)N1C [Cilengitide]
> 45.8,> 45.8,CN/C(=N\CCSCc1nc[nH]c1C)NC#N [Cimetidine]
> 45.8,> 45.8,COc1ccc(-c2c(Cl)ncn2-c2ccc(S(N)(=O)=O)cc2)cc1F [Cimicoxib]
> 45.8,> 45.8,OC/C=C/c1ccccc1 [Cinnamyl alcohol]
> 45.8,> 45.8,C(=C\c1ccccc1)/CN1CCN(C(c2ccccc2)c2ccccc2)CC1 [Cinnarizine]
> 45.8,> 45.8,CCn1nc(C(=O)O)c(=O)c2cc3c(cc21)OCO3 [Cinoxacin]
> 45.8,> 45.8,O=C(O)c1cn(C2CC2)c2cc(N3CCNCC3)c(F)cc2c1=O [Ciprofloxacin]
> 45.8,> 45.8,CN(C)CCCC1(c2ccc(F)cc2)OCc2cc(C#N)ccc21 (stereo not drawn) [Citalopram hydrobromide]
> 45.8,> 45.8,CC[C@H]1OC(=O)[C@H](C)[C@@H](O[C@H]2C[C@@](C)(OC)[C@@H](O)[C@H](C)O2)[C@H](C)[C@@H](O[C@@H]2O[C@H](C)C[C@H](N(C)C)[C@H]2O)[C@](C)(OC)C[C@@H](C)C(=O)[C@H](C)[C@@H](O)[C@]1(C)O [Clarithromycin]
> 45.8,> 45.8,Clc1ccc(Cn2c(CN3CCCC3)nc3ccccc32)cc1 [Clemizole hydrochloride]
> 45.8,> 45.8,CC(C)(C)C(=O)C(Oc1ccc(Cl)cc1)n1ccnc1 (stereo not drawn) [Climbazole]
